Results from ChEMBL document CHEMBL6153040, “Discovery of the salicylaldehyde-based compound DDO-02267 as a lysine-targeting covalent inhibitor of ALKBH5” (Eur J Med Chem, 2025).
Calls of active or inactive are those of the source. The rule behind the calls is not given here.

Assays:
RNA demethylase ALKBH5 [1] = target: T1, RNA demethylase ALKBH5 (Homo sapiens, UniProt Q6P6C2); assay: Inhibition of ALKBH5 (66 to 292 residues) (unknown origin) extracted from Escherichia coli BL21 (DE3) cells using m6A ssDNA as substrate measured after 6 hrs by fluorescence polarization assay
Target sequence in this assay (Q6P6C2 whole entry, the tested form may be a part): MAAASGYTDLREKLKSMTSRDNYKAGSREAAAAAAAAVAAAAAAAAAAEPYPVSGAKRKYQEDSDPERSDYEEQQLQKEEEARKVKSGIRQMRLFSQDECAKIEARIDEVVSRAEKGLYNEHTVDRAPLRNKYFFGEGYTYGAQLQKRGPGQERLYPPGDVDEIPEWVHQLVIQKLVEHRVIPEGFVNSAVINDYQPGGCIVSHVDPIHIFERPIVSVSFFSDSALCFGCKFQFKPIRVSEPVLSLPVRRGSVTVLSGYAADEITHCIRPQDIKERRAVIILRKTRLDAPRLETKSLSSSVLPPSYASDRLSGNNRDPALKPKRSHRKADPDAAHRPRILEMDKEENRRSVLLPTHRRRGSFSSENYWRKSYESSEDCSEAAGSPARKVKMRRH

RNA demethylase ALKBH5 [2] = target: T1, RNA demethylase ALKBH5; assay: Inhibition of ALKBH5 (66 to 292 residues) (unknown origin) extracted from Escherichia coli BL21 (DE3) cells using m6A ssDNA as substrate measured after 2 hrs by fluorescence polarization assay
Target sequence in this assay (Q6P6C2 whole entry, the tested form may be a part): as above

RNA demethylase ALKBH5 [3] = target: T1, RNA demethylase ALKBH5; assay: Inhibition of ALKBH5 (66 to 292 residues) (unknown origin) extracted from Escherichia coli BL21 (DE3) cells using m6A ssDNA as substrate measured after 1 hrs by fluorescence polarization assay
Target sequence in this assay (Q6P6C2 whole entry, the tested form may be a part): as above

RNA demethylase ALKBH5 [4] = target: T1, RNA demethylase ALKBH5; assay: Inhibition of ALKBH5 (66 to 292 residues) (unknown origin) extracted from Escherichia coli BL21 (DE3) cells using m6A ssDNA as substrate measured immediately by fluorescence polarization assay
Target sequence in this assay (Q6P6C2 whole entry, the tested form may be a part): as above

RNA demethylase ALKBH5 [5] = target: T1, RNA demethylase ALKBH5; assay: Binding affinity to ALKBH5 (66 to 292 residues) (unknown origin) extracted from Escherichia coli BL21 (DE3) cells assessed as dissociation constant incubated for 3 hrs by MST analysis
Target sequence in this assay (Q6P6C2 whole entry, the tested form may be a part): as above

RNA demethylase ALKBH5 [6] = target: T1, RNA demethylase ALKBH5; assay: Binding affinity to ALKBH5 (66 to 292 residues) (unknown origin) extracted from Escherichia coli BL21 (DE3) cells assessed as dissociation constant incubated for 4 hrs by MST analysis
Target sequence in this assay (Q6P6C2 whole entry, the tested form may be a part): as above

RNA demethylase ALKBH5 [7] = target: T1, RNA demethylase ALKBH5; assay: Inhibition of ALKBH5 (66 to 292 residues) (unknown origin) extracted from Escherichia coli BL21 (DE3) cells using m6A ssDNA as substrate at 1.25 to 10 uM incubated for 2 hrs in presence of 2-OG by TBE-PAGE based restriction enzyme digestion assay; conditions: dose 1.25-10 µM
Target sequence in this assay (Q6P6C2 2-394 limits assumed): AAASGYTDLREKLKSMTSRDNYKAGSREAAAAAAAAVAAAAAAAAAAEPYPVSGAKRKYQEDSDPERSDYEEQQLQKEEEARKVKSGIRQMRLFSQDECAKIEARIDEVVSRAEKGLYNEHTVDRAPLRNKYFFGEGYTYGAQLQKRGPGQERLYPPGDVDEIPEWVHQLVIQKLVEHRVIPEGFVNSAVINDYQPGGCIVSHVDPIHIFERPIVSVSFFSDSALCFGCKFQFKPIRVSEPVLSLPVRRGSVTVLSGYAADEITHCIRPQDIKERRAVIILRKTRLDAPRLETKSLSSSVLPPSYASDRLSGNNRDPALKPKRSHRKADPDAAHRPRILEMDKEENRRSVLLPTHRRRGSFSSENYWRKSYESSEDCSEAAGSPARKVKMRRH

RNA demethylase ALKBH5 [8] = target: T1, RNA demethylase ALKBH5; assay: Binding affinity to ALKBH5 (66 to 292 residues) (unknown origin) extracted from Escherichia coli BL21 (DE3) cells assessed as dissociation constant incubated for 1.5 hrs by MST analysis
RNA demethylase ALKBH5 [9] = target: T1, RNA demethylase ALKBH5; assay: Inhibition of ALKBH5 (66 to 292 residues) (unknown origin) demethylase activity extracted from Escherichia coli BL21 (DE3) cells at 200 uM preincubated for 3 hrs and measured after compound washout by small molecule dilution method
Target sequence in this assay (Q6P6C2 2-394 limits assumed): as above

RNA demethylase ALKBH5 [10] = target: T1, RNA demethylase ALKBH5; assay: Inhibition of ALKBH5 (66 to 292 residues) (unknown origin) extracted from Escherichia coli BL21 (DE3) cells using m6A ssDNA as substrate incubated for 2 hrs by TBE-PAGE based restriction enzyme digestion assay
Target sequence in this assay (Q6P6C2 2-394 limits assumed): as above

RNA demethylase ALKBH5 [11] = target: T1, RNA demethylase ALKBH5; assay: Binding affinity to ALKBH5 (66 to 292 residues) (unknown origin) extracted from Escherichia coli BL21 (DE3) cells assessed as dissociation constant incubated for 5 hrs by MST analysis
RNA demethylase ALKBH5 [12] = target: T1, RNA demethylase ALKBH5; assay: Binding affinity to ALKBH5 (66 to 292 residues) (unknown origin) extracted from Escherichia coli BL21 (DE3) cells assessed as dissociation constant incubated for 1 hrs by MST analysis

COc1ccc(S(=O)(=O)NC(=O)c2cc(C(=O)O)ccn2)cc1
IC50 (RNA demethylase ALKBH5 [1]): 19.1 µM

O=C(O)c1ccnc(C(=O)NCc2ccccc2[N+](=O)[O-])c1
IC50 (RNA demethylase ALKBH5 [1]): > 200 µM

N#Cc1ccccc1S(=O)(=O)NC(=O)c1cc(C(=O)O)ccn1
IC50 (RNA demethylase ALKBH5 [1]): > 200 µM

O=Cc1cc(S(=O)(=O)NC(=O)c2cc(C(=O)O)ccn2)ccc1O
IC50 (RNA demethylase ALKBH5 [2]): 0.45 µM
IC50 (RNA demethylase ALKBH5 [3]): 0.55 µM
IC50 (RNA demethylase ALKBH5 [4]): 3.4 µM

C=CC(=O)Nc1ccccc1S(=O)(=O)NC(=O)c1cc(C(=O)O)ccn1
IC50 (RNA demethylase ALKBH5 [2]): 19.2 µM
IC50 (RNA demethylase ALKBH5 [3]): 21.6 µM
IC50 (RNA demethylase ALKBH5 [4]): 21.2 µM

O=C(O)c1ccnc(C(=O)NS(=O)(=O)c2ccccc2)c1
IC50 (RNA demethylase ALKBH5 [2]): 52.1 µM
IC50 (RNA demethylase ALKBH5 [3]): 51.9 µM
IC50 (RNA demethylase ALKBH5 [4]): 64.9 µM
IC50 (RNA demethylase ALKBH5 [1]): 56.8 µM

CN(C(=O)c1cc(C(=O)O)ccn1)S(=O)(=O)c1ccccc1[N+](=O)[O-]
IC50 (RNA demethylase ALKBH5 [1]): > 200 µM

COC(=O)c1ccnc(C(=O)NS(=O)(=O)c2ccccc2[N+](=O)[O-])c1
IC50 (RNA demethylase ALKBH5 [1]): > 200 µM

CC(=O)c1cc(S(=O)(=O)NC(=O)c2cc(C(=O)O)ccn2)c2ccccc2c1O
IC50 (RNA demethylase ALKBH5 [2]): 5.52 µM
IC50 (RNA demethylase ALKBH5 [3]): 5.81 µM
IC50 (RNA demethylase ALKBH5 [4]): 8.56 µM

O=C(O)c1ccnc(C(=O)NS(=O)(=O)c2ccc(-c3ccccc3)cc2)c1
IC50 (RNA demethylase ALKBH5 [1]): 16.5 µM

O=C(CCl)Nc1cccc(S(=O)(=O)NC(=O)c2cc(C(=O)O)ccn2)c1
IC50 (RNA demethylase ALKBH5 [2]): 10.4 µM
IC50 (RNA demethylase ALKBH5 [3]): 15 µM
IC50 (RNA demethylase ALKBH5 [4]): 30.6 µM

COc1ccccc1S(=O)(=O)NC(=O)c1cc(C(=O)O)ccn1
IC50 (RNA demethylase ALKBH5 [1]): > 200 µM

O=C(O)c1ccnc(C(=O)NS(=O)(=O)c2ccccc2-c2ccccc2)c1
IC50 (RNA demethylase ALKBH5 [1]): 82.1 µM

N#Cc1ccc(S(=O)(=O)NC(=O)c2cc(C(=O)O)ccn2)cc1
IC50 (RNA demethylase ALKBH5 [1]): 39.9 µM

O=C(O)c1ccnc(C(=O)NS(=O)(=O)c2cccc3ccccc23)c1
Kd (RNA demethylase ALKBH5 [5]): 63.9 µM
Kd (RNA demethylase ALKBH5 [6]): 42 µM
inhibition (RNA demethylase ALKBH5 [7]): inactive
Kd (RNA demethylase ALKBH5 [8]): 52.2 µM
inhibition (RNA demethylase ALKBH5 [9]): inactive
IC50 (RNA demethylase ALKBH5 [1]): 12.7 µM
inhibition (RNA demethylase ALKBH5 [10]): Active
Kd (RNA demethylase ALKBH5 [11]): 61.7 µM
Kd (RNA demethylase ALKBH5 [12]): 58.7 µM

CC(=O)c1cc(S(=O)(=O)NC(=O)c2cc(C(=O)O)ccn2)ccc1O
IC50 (RNA demethylase ALKBH5 [2]): 4.38 µM
IC50 (RNA demethylase ALKBH5 [3]): 6.5 µM
IC50 (RNA demethylase ALKBH5 [4]): 14.8 µM

C=CC(=O)Nc1cccc(S(=O)(=O)NC(=O)c2cc(C(=O)O)ccn2)c1
IC50 (RNA demethylase ALKBH5 [2]): 3.97 µM
IC50 (RNA demethylase ALKBH5 [3]): 5.32 µM
IC50 (RNA demethylase ALKBH5 [4]): 7.44 µM

O=C(OCc1ccc(C(F)(F)F)cc1)c1ccc(-c2cc3ncc(C(=O)c4c(O)ccc([N+](=O)[O-])c4O)cn3n2)cc1
IC50 (RNA demethylase ALKBH5 [1]): 4.06 µM

O=C(O)c1ccnc(C(=O)NS(=O)(=O)c2cccc(-c3ccccc3)c2)c1
IC50 (RNA demethylase ALKBH5 [1]): 15 µM

O=C(CCl)Nc1ccccc1S(=O)(=O)NC(=O)c1cc(C(=O)O)ccn1
IC50 (RNA demethylase ALKBH5 [2]): 10.8 µM
IC50 (RNA demethylase ALKBH5 [3]): 12.5 µM
IC50 (RNA demethylase ALKBH5 [4]): 18.4 µM

O=C(O)c1ccnc(C(=O)NS(=O)(=O)c2ccc3ccccc3c2)c1
IC50 (RNA demethylase ALKBH5 [1]): 15.2 µM

O=C(O)c1ccnc(C(=O)NS(=O)(=O)c2ccccc2C(F)(F)F)c1
IC50 (RNA demethylase ALKBH5 [1]): > 200 µM

O=C(O)c1cccc(C(=O)NS(=O)(=O)c2ccccc2[N+](=O)[O-])c1
IC50 (RNA demethylase ALKBH5 [1]): > 200 µM

N#Cc1cccc(S(=O)(=O)NC(=O)c2cc(C(=O)O)ccn2)c1
IC50 (RNA demethylase ALKBH5 [1]): > 200 µM
